Experimental data: ChEMBL document CHEMBL1777678, “2,4-diarylthiazole antiprion compounds as a novel structural class of antimalarial leads” (Bioorg Med Chem Lett, 2011)
The source made the active and inactive calls. No cut-off for these calls is given here.

How the values were obtained:
[1] = system: Plasmodium falciparum; assay: Antimalarial malarial activity against chloroquine-sensitive Plasmodium falciparum 3D7 infected in human A positive erythrocytes assessed as inhibition of [3H]hypoxanthine incorporation after 24 hrs; format: functional, organism-based
[2] = Cytotoxicity against mouse SMB cells up to 20 uM; format: cell-based
[3] = system: Plasmodium falciparum; assay: Antimalarial malarial activity against chloroquine-resistant Plasmodium falciparum K1 infected in human A positive erythrocytes assessed as inhibition of [3H]hypoxanthine incorporation after 24 hrs; format: functional, organism-based
[4] = Antiprion activity against Chandler strain of sheep scrapie prion protein infected in mouse SMB cells assessed as clearance of disease-associated scrapie prion protein; format: cell-based, Ovis aries
[5] = system: Plasmodium falciparum; assay: Antimalarial malarial activity against chloroquine-sensitive Plasmodium falciparum 3D7 infected in human A positive erythrocytes assessed as inhibition of [3H]hypoxanthine incorporation at 19.3 ug/ml after 24 hrs; format: functional, organism-based
[6] = system: Plasmodium falciparum; assay: Antimalarial malarial activity against chloroquine-resistant Plasmodium falciparum K1 infected in human A positive erythrocytes assessed as inhibition of [3H]hypoxanthine incorporation 10 ug/ml after 24 hrs; format: functional, organism-based
[7] = Ovis aries, SMB, read-out: EC50

Row | Structure (SMILES) | IC50 [1] | Activity [2] | IC50 [3] | EC50 ([4]; smb) | EC50 [4, 7] | inhibition [5] | inhibition [6]
1 | O=C(NCc1ccccn1)c1sc(-c2ccccc2)nc1-c1ccccc1 | 19.7 µM | Non-toxic | 15 µM | Not Active |  |  | 
2 | O=C(c1sc(-c2ccccc2)nc1-c1ccccc1)N1CCC(N2CCCC2)CC1 | 12 µM | Non-toxic | 6.2 µM |  | 5.5 µM |  | 
3 | O=C(NCCN1CCCC1)c1sc(-c2ccccc2)nc1-c1ccccc1 |  | Toxic | 14.9 µM |  | 10.7 µM | inactive | 
4 | CCN(CC)CCCC(C)Nc1ccnc2cc(Cl)ccc12 (stereo not drawn) [CHLOROQUINE] |  |  |  |  | 2.3 µM |  | 
5 | CCN(CC)CCCNC(=O)c1sc(-c2ccccc2)nc1-c1ccccc1 | 1 µM | Non-toxic | 13.3 µM |  | 2.3 µM |  | 
6 | O=C(NCCN1CCOCC1)c1sc(-c2ccccc2)nc1-c1ccccc1 |  | Non-toxic |  | Not Active |  | inactive | inactive
7 | CCN(CC)CCNC(=O)c1sc(-c2cccs2)nc1-c1ccccc1 | 13.8 µM | Non-toxic | 4.4 µM |  | 6.7 µM |  | 
8 | CN(C)CCNC(=O)c1sc(-c2ccccc2)nc1-c1ccccc1 |  | Toxic | 8.8 µM |  | 4.8 µM | inactive | 
9 | CCN(CC)CCCC(C)NC(=O)c1sc(-c2ccccc2)nc1-c1ccccc1 (stereo not drawn) | 9.5 µM | Non-toxic | 3.8 µM |  | 2.9 µM |  | 
10 | CCN(CC)CCNC(=O)c1sc(-c2cccnc2)nc1-c1ccccc1 |  | Non-toxic | 5.3 µM |  | 20 µM | inactive | 
11 | O=C(NCCCn1ccnc1)c1sc(-c2ccccc2)nc1-c1ccccc1 | 13.9 µM | Non-toxic | 11.5 µM | Not Active |  |  | 
12 | O=C(c1sc(-c2ccccc2)nc1-c1ccccc1)N1CCC(N2CCCCC2)CC1 | 20.2 µM | Non-toxic | 0.83 µM |  | 1.9 µM |  | 
13 | CCN(CC)CCNC(=O)c1sc(-c2ccc(OC)cc2)nc1-c1ccccc1 |  | Non-toxic | 7.7 µM |  | 4 µM | inactive | 
14 | CCN(CC)CCNC(=O)c1sc(-c2ccccc2)nc1-c1ccccc1 |  | Non-toxic | 0.71 µM |  | 4.9 µM | inactive | 
